Test results from BigSolDB 2.1.

CC(C)[C@H](N)C(=O)O
Settings | solubility (mole fraction)
in DMF, 293.15 K | 1.25e-06
in DMF, 303.25 K | 2.49e-06
in DMF, 313.25 K | 4.36e-06
in DMF, 323.15 K | 7.48e-06
in DMF, 333.25 K | 1.06e-05
in DMF, 343.25 K | 1.49e-05
in acetone, 293.15 K | 4.96e-07
in acetone, 302.95 K | 9.91e-07
in acetone, 313.35 K | 1.98e-06
in acetone, 323.35 K | 2.97e-06
in acetone, 328.15 K | 3.97e-06
in ethanol, 293.15 K | 1.18e-05
in ethanol, 303.75 K | 2.36e-05
in ethanol, 313.15 K | 3.69e-05
in ethanol, 323.15 K | 5.34e-05
in ethanol, 333.25 K | 7.62e-05
in ethanol, 343.25 K | 0.000109
in isopropanol, 293.45 K | 2.56e-06
in isopropanol, 303.05 K | 4.61e-06
in isopropanol, 313.35 K | 7.17e-06
in isopropanol, 323.25 K | 1.08e-05
in isopropanol, 333.05 K | 1.54e-05
in isopropanol, 343.35 K | 2.1e-05
in water, 293.55 K | 0.00884
in water, 303.05 K | 0.00938
in water, 313.15 K | 0.0101
in water, 323.05 K | 0.0109
in water, 333.25 K | 0.0117
in water, 343.15 K | 0.0129
